Test results as given in PubChem BioAssay (NCI).
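Protocol summary: plate cells (96-well), add compound at 5 concentrations, incubate 48 h, interpolate endpoints linearly. The concentration for 50% growth inhibition is given as GI50. The concentration for full growth arrest is given as TGI.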

Key:
Experiment in all cases: NCI anticancer screen, dose series, 48 h
IGROV1 ovarian = tested on: IGROV1 ovarian
OVCAR-3 ovarian = tested on: OVCAR-3 ovarian
LOX IMVI melanoma = tested on: LOX IMVI melanoma
SF-295 CNS = tested on: SF-295 CNS
HCT-116 colon = tested on: HCT-116 colon
SR leukemia = tested on: SR leukemia
KM12 colon = tested on: KM12 colon
OVCAR-4 ovarian = tested on: OVCAR-4 ovarian
SNB-75 CNS = tested on: SNB-75 CNS
DU-145 prostate = tested on: DU-145 prostate

Structure (SMILES)	GI50 (IGROV1 ovarian) [µM]	TGI (IGROV1 ovarian) [µM]	GI50 (OVCAR-3 ovarian) [µM]	TGI (OVCAR-3 ovarian) [µM]	GI50 (LOX IMVI melanoma) [µM]	TGI (LOX IMVI melanoma) [µM]	GI50 (SF-295 CNS) [µM]	TGI (SF-295 CNS) [µM]	GI50 (HCT-116 colon) [µM]	TGI (HCT-116 colon) [µM]	GI50 (SR leukemia) [µM]	TGI (SR leukemia) [µM]	GI50 (KM12 colon) [µM]	TGI (KM12 colon) [µM]	GI50 (OVCAR-4 ovarian) [µM]	TGI (OVCAR-4 ovarian) [µM]	GI50 (SNB-75 CNS) [µM]	TGI (SNB-75 CNS) [µM]	GI50 (DU-145 prostate) [µM]	TGI (DU-145 prostate) [µM]
O=C(Nc1cc(F)c(F)cc1C(=O)O)c1ccc(-n2ccnc2)nn1	> 100	> 100	42.4	> 100	> 100	> 100	> 100	> 100	> 100	> 100	27.9	> 100	> 100	> 100	65.6	> 100	> 100	> 100	> 100	> 100
Fc1ccc(-c2nn3ccccc3c2-c2ccncc2)cc1	12.9	> 25	> 25	> 25	> 25	> 25	> 25	> 25	> 25	> 25	> 25	> 25	> 25	> 25	> 25	> 25	> 19.7	> 25	> 25	> 25
c1ccc(Oc2ccc(Nc3ncc(-c4ccccc4)o3)cc2)cc1	> 25	> 25	> 25	> 25	> 25	> 25	> 25	> 25	> 25	> 25	> 25	> 25	> 25	> 25	> 25	> 25	> 25	> 25	> 25	> 25
CS(=O)(=O)c1cccc(Nc2ncc3cc(-c4ccccc4Cl)ccc3n2)c1	1.1	12.4	1.52	> 33.3	1.06	4.54	1.6	> 33.3	1.01	4.51	0.8	> 33.3	1.2	> 33.3	1.51	> 33.3	0.507	2.3	1.42	> 33.3
Nc1ncc(-c2ccc3ncnc(N4CCc5ccc(Cl)cc54)c3c2)cc1C(F)(F)F	0.188	0.964	1.05	15.1	0.734	11.9	1.4	16.5	2.53	16.6	2.55	> 100	2.48	48.3	1.07	3.23	0.113	1.64	1.43	18.2
O=C(Nc1ccccc1)OC1OC(COC(=O)c2ccccc2)C(OC(=O)c2ccccc2)C1OS(=O)(=O)c1ccc([N+](=O)[O-])cc1 (stereo unspecified)	–	> 100	–	> 100	–	> 100	–	> 100	–	> 100	–	> 100	–	> 100	–	> 100	–	–	–	> 100
CCN1C(=O)N(CC)C2C1NN=c1s/c(=C3\C(=O)N(C4CCCC4)c4ccccc43)c(=O)n12 (stereo unspecified)	0.773	> 100	0.516	2.09	1.63	> 100	1.6	14.4	–	–	0.392	> 100	0.689	> 100	–	–	–	–	2.25	6.59
O=C(Nc1cc(Cl)ccc1O)c1ccccc1Nc1ccnc(C(F)(F)F)c1	–	–	1.7	4.8	3.2	22.7	2.5	6.78	2.2	5.63	2.83	11.6	2.74	8.13	2.29	13.2	2.17	6.55	3.69	14.1
O=C1Cc2cc(CCn3cncn3)c(Cl)cc2N1	> 100	> 100	> 100	> 100	> 100	> 100	37.1	> 100	32	> 100	11.8	> 100	5.42	> 100	> 100	> 100	13.2	> 100	> 100	> 100
O=C(Nc1cc(Cl)ccc1O)c1cccc(Nc2ccnc(C(F)(F)F)c2)c1	7.47	33.9	2.73	10.4	2.65	24.4	2.38	11.1	2.22	17.6	0.811	15.2	3.68	14.4	2.32	17.4	6.27	22.2	5.22	22.6
COc1ccc2c(O)c(/C=C3\N=Nc4ncccc43)oc2c1C[C@@H]1CCNC[C@H]1F	1.79	8.11	0.485	2.74	0.318	0.972	0.723	4.03	0.118	1.21	–	0.193	0.314	1.4	1.41	3.45	0.378	1.94	0.809	4.19
Cc1c2ccncc2c(C)c2c1sc1ccccc12	–	21.6	–	29.6	–	21.5	–	26.4	–	15.8	–	8.98	–	31.2	–	37.8	–	36.5	–	29.7
CN(C)Cc1ccc(NC(=O)c2cncc(C#Cc3cnc(N)c4ncccc34)c2)cc1F	2.13	3.96	2.07	3.68	–	–	10.6	26.5	1.8	3.48	1.93	5.93	1.7	3.16	–	–	1.38	5.73	1.77	3.32
